The results in this text go back to PMC10313808, “Lipoxygenase inhibitory synthetic derivatives of methyl gallate regulate gene expressions of COX-2 and cytokines to reduce animal model arthritis” (Scientific Reports, 2023).

The target of experiment [1] is T1, Lipoxidase from Glycine max (15- LOX) (Glycine max, UniProt P08170).
T1 construct: purchased Sigma (Sigma-Aldrich, UK)
T1 sequence (P08170 1-839): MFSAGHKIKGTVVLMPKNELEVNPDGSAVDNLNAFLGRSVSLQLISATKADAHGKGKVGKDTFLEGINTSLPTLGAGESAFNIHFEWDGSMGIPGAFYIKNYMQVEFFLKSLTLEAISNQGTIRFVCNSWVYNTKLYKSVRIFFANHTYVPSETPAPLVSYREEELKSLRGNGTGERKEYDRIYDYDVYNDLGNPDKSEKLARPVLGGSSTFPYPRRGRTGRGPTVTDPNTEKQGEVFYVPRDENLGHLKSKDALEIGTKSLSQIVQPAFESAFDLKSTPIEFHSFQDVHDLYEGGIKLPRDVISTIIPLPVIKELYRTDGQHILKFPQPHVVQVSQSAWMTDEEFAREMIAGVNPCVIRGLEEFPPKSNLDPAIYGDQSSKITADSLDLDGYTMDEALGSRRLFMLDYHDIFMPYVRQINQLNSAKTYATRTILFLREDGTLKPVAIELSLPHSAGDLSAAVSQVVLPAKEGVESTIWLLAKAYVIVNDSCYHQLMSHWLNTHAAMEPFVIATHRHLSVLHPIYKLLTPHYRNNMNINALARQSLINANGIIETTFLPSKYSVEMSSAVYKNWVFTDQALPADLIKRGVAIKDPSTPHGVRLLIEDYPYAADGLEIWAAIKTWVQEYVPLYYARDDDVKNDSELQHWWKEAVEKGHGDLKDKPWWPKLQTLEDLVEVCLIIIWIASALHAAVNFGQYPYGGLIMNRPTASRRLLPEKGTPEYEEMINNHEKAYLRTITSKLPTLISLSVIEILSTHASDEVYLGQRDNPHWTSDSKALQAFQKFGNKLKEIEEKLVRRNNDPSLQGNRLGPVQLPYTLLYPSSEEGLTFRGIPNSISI
In words: Michaelis–Menten enzyme kinetics (Lineweaver-Burk). It counts as biochemical. The settings on record: for IC50: Cheng–Prusoff from Ki; for Ki: linoleic acid substrate, competitive. Here is the method: To identify the mode of inhibition, enzyme kinetics assay was performed with MGSDs. For the kinetic analysis different substrate concentrations of 18, 27, 36, 45, 54, 63 µM were prepared in 0.2 mM borate buffer (H 9)[16]. The assay mixture was made of 50 µL of LOX, 50 µL of the test solution and different concentrations of the substrate. The final volume was made upto 2 mL with corresponding borate buffer quantity. The activity of LOX was measured by the formation of […], which was monitored at 234 nm on spectrophotometer, (HITACHI U 2900, Japan). The reaction was measured at a time span of 300 s. The same experiment was repeated in the presence of 0.1, 0.08 and 0.06 μM concentration of MGSDs. The Line Weaver-Burk plot was constructed and Michaelis–Menten constant (Km) and Maximal Velocity (Vmax) were determined from the plot. From the Km and Vmax obtained, the inhibitor constant, Ki was calculated using the following equation derived from the Michaelis–Menten Equation: Km′=Km1+I0/Ki. The IC50was calculated using the Cheng–Prusoff equation, Ki=IC50/1+S/Km.

For experiment [2], the target named is T1, Lipoxidase from Glycine max (15- LOX). Kind of experiment: In-vitro LOX enzyme inhibition assay (spectrophotometric, 234 nm). The settings on record: 20 μM compound. It is filed as biochemical. How it is done: The LOX inhibition assays were performed with MGSDs. The inhibitory activity was measured by a modified spectrophotometric method[16],[39]. The plant LOX pathway is in many respects equivalent to the ‘arachidonic acid cascades’ in animals. For this reason, the in vitro inhibition of LOX constitutes a good model for the screening of compounds with anti-inflammatory potential[40],[41]. LOX (Lipoxidase from Glycine max (15- LOX); EC 1.13.11.12) type I-B (Soybean), and linoleic acid were purchased from Sigma (Sigma-Aldrich, UK) and used without further purification. Enzyme solution of 1.03 µM was prepared in 0.2 mM borate buffer, pH 8.5. The substrate, linoleic acid solution of 0.3 mM was also prepared in the borate buffer at the same pH. […] The final concentration of MGSDs used for the analysis was 20 µM. The assay mixture was made of 50 µL of LOX, 50 µL of the test solution and 360 µL of the substrate. The final volume was made up to 2 mL with corresponding borate buffer quantity. The activity of LOX was measured on the formation of […], which was monitored at 234 nm on spectrophotometer, (HITACHI U 2900, Japan). The same procedure was repeated with triplicate for the confirmation of LOX inhibitory activity[16],[39].

In experiment [3] the target is T2, LOX (Glycine max, UniProt P08170).
T2 construct: purchased Sigma (Sigma-Aldrich, UK)
T2 sequence (P08170 1-839): T1 sequence (P08170 1-839)
Kind of experiment: Fluorescence quenching studies. It counts as binding. The settings on record: 296 K, pH 9; for Kd: read-out: Binding constant (K) (converted); for Quenching constant (Ksv): Stern–Volmer. The source says:
To analyze the type of mechanism, the data of fluorescence of LOX was plotted, as relative fluorescence intensity (F0/F), against MGSDs. Here F and F0 are the fluorescence intensity in the presence and absence of MGSDs respectively. The Stern–Volmer constants were obtained from the plot by linear regression using the expression: F0/F=1+KsvQ.
Ksv is the Stern–Volmer constant and [Q] is the respective concentration of derivatives. Ksv which depicts the binding affinity between the fluorophore (protein) and quencher (ligand), were obtained from the slopes of the plot (Supplementary Fig. 15). […] The Fluorescence quenching data provided information about the binding constant (K), the number of binding sites (n), and the values could be arrived by applying the equation. Log F0-F/F=log K+nlogQ.
The Fluoromax-4 spectrophotometer (Spectra-NanoLED source 278) was used for studying fluorescence quenching of the compound. Bandwidth set at 5 nm for both excitation and emission spectra. The wavelength was set for excitation at 280 nm and the emission was recorded at 290–450 nm using 1.0 cm cell at 296 K temperature. The LOX with a concentration of 7 μM, dissolved in borate buffer at pH 9 and ligands at the concentrations of 35, 70, 105, 140, 175, 210, 245 and 280 μM were used for the experiment.

For experiment [4], the system named is FCA-induced arthritis. As to conditions: FCA rats, serum, 10 mg.kg^−1 oral. How it is done: (§1) Chronic inflammation induced by Freund's Complete Adjuvant contains a suspension of heat-killed Mycobacterium tuberculosis in the vehicle (Chondrex, Labex Corporation). 100 μL of FCA (10 mg/mL) was injected intradermally to the left-hand paw of SD rats[42]. […] Induction of inflammation became chronic by 9–12 days and then rats were divided into 7 groups having 6 rats in each group. Everything possible was done to minimize the suffering of experimental animals. Minimum number of rats only were drafted to generate reliable data. 42 rats were randomly allocated into seven groups (6 × 7).
(§2) Group I (n = 6) served as normal rats that received an equal volume of vehicle control. Group II (n = 6) was arthritic model control treated with vehicle only. Group III (n = 6) was arthritic control which received the diclofenac (10 mg.kg^–1). Groups IV (n = 6), V (n = 6), VI (n = 6) and VII (n = 6) were treated with a low and high dose of methyl gallate (20 mg.kg^–1, 40 mg.kg^–1) and MGSD 1 (1 mg.kg^–1, 10 mg.kg^–1). The drugs were orally administered through oral gavage daily in PBS vehicle for 28 days.
(§3) Blood was drawn from jugular vein[43] and collected in heparinized tubes and used for further analysis. By using Horiba 5-part hematology analyzer the blood parameters like RBC, WBC, neutrophil and hemoglobin were analyzed. Serum parameters were analyzed using Stat Fax autoanalyzer. Serum glutamic pyruvic transaminase (SGPT), serum glutamic oxaloacetic transaminase (SGOT) and alkaline phosphatase (ALP) were determined using standard diagnostic kits (Proton, Accurex).

Experiment [5] deals with FCA-induced arthritis. Kind of experiment: FCA-induced arthritis: haematological parameters. It counts as in vivo, Sprague–Dawley (SD) rats. The settings on record: FCA rats, 10 mg.kg^−1 oral. How it is done:
as §1, §2, §3

Experiment [6] relates to FCA-induced arthritis. In words: FCA-induced arthritis: organ index (liver, spleen). It is filed as in vivo, Sprague–Dawley (SD) rats. The settings on record: FCA rats, 10 mg.kg^−1 oral, end of experiment. Here is the method: as §1, §2
At the end of the experiments, animals were euthanized using ketamine injection. The liver and spleen were removed at the end of the experiment and weighed. The index of the organs was expressed as the percentage (%) wet weight of organ versus body weight. The organ indexes were calculated by using the following formula Organindex=Weightoforgang/Bodyweightg×100.

The nature of experiment [7]: FCA-induced arthritis: body weight measurement. It is filed as in vivo, Sprague–Dawley (SD) rats. The settings on record: FCA rats, 10 mg.kg^−1 oral. Here is the method:
as §1, §2
The bodyweight of the animals was measured every day after the commencement of the experiment till the end (28th day). The weight change was calculated using the formula: Weightchange%=Wt-Wo/[…], where Wt is the weight of the animal at time t
Wo is the weight of the animal on the initial day.

Experiment [8] has as its system FCA-induced arthritis. Kind of experiment: FCA-induced arthritis: hind paw volume. It is filed as in vivo, Sprague–Dawley (SD) rats. As to conditions: FCA rats, 10 mg.kg^−1 oral. How it is done:
as §1, §2
By a plethysmometer the rat hind paw volume was measured from the initial day to final day (28th day) with successive intervals of 9 days, before and after FCA injection. The inhibition was calculated by the formula given below. Percentageinhibition=1-Meanchangesinpawvolumeoftreatedrat/Meanchangesinpawvolumeofuntreatedrat×100.

The subject of experiment [9] is ankle joints, liver, spleen, and thymus. Kind of experiment: FCA-induced arthritis: histological analysis. It counts as in vivo, Sprague–Dawley (SD) rats. As to conditions: FCA rats. Here is the method: The animals used for the FCA induced arthritis were euthanized at the end of the experiment and the ankle joints were separated from the hind paw and fixed in 10% buffered formalin. Similarly, liver, spleen, and thymus were also dissected carefully and immersed in fixative, and after 24 h each specimen were decalcified in 5% nitric acid, followed by embedding in paraffin wax and 4 µm thickness sections were prepared. These prepared sections were then mounted and stained with hematoxylin and[…] under brightfield compound binocular research microscope at 100X and 400X magnification and inflammation was graded.

`O=C(O)COc1cc(C(=O)O)cc(O)c1O` [MGSD 3, (3-(carboxymethoxy)-4,5-dihydroxybenzoic acid] came in with an IC50 in [1] (abstract) of 226 nM. This molecule yielded a Ki in experiment [1] of 60 nM. In [2], this molecule came in with an inhibition at 20 µM of 65 ± 2.65%. In experiment [3], the Kd is 485000 nM and the “Quenching constant (Ksv)” value came to 7800 M⁻¹.

For `O=C(O)Cc1ccccc1Nc1c(Cl)cccc1Cl` [Diclofenac], in [4], the SGOT came to 210 ± 1.73 IU/L and the SGPT turned out to be 91 ± 1.20 IU/L. For the same molecule, in experiment [5], the Hb was 14.3 ± 0.4 g/dL, the Lymphocyte turned out to be 73.2 ± 1.64%, the Neutro phil was found to be 11.5 ± 0.15% and the RBC is 7.92 ± 0.18^# 10^6/mm^3. In [5], the WBC is recorded as 9.25 ± 0.10^# 10^3/mm^3. For the same molecule, in experiment [6], the “Organ index (%) Liver” value worked out at 3.18 ± 0.11% and the “Organ index (%) Spleen” value was 0.21 ± 0.01%. Besides, in experiment [7] (9th day), the “Percentage of body weight (Mean ± SEM) 9th day” value is 9.9 ± 0.07%. In addition, the “Percentage of body weight (Mean ± SEM) 18th day” value in [7] (18th day) came out at 36.55 ± 1.10%. For the same molecule, the “Percentage of body weight (Mean ± SEM) 28th day” value in experiment [7] (28th day) is recorded as 41.52 ± 1.36%. Besides, the “Percentage of inhibition (paw oedema)” value in experiment [8] is reported as 59%. In addition, the “Paw volume (mL) (mean ± SEM) 9th day” value in experiment [8] (9th day) is 1.44 ± 0.16 mL. In experiment [8] (18th day), the “Paw volume (mL) (mean ± SEM) 18th day” value is given as 0.8 ± 0.22 mL. Further, the “Paw volume (mL) (mean ± SEM) 28th day” value in experiment [8] (28th day) was determined as 0.73 ± 0.08 mL. Further, in [8] (initial day), the “Paw volume (mL) (mean ± SEM) Initial day” value is listed as 0.56 ± 0.05 mL. Further, the “Percentage of inhibition (paw oedema)” value in experiment [8] (listed as diclofenac) is 59%. In experiment [9] (10 mg.kg^-1), the “Histology of ankle joints” value is “synovial joint was seen free of infiltration and oedema”. Also, in [9] (dose not stated), the Histology of liver result was “hepatocyte arrays and central sinusoid area were seen to regain normalcy and a few necrotic cells were still visible”; the Histology of spleen result is given as “periarteriolar lymphoid sheath regained normalcy”. In experiment [9] (methyl gallate high dose), the Histology of thymus result is listed as “reduction in the number of neutrophils”.

Consider `O=C(O)COc1cc(C(=O)O)cc(O)c1OCC(=O)O` [MGSD 2, 2,2′-((5-carboxy-3-hydroxy-1,2-phenylene)bis (oxy))diacetic acid], for which, in [1], the IC50 came to 340 nM and the Ki was 100 nM. In [2], this molecule came in with an inhibition at 20 µM of 68 ± 4.32%. Also, in [3], the Kd is 439000 nM and the “Quenching constant (Ksv)” value came to 6300 M⁻¹.
